We go through 1 compound from article PMC9179154, “Identification of acetylated diether lipids in halophilic Archaea” (MicrobiologyOpen, 2022).

The assay concerns the target T1, hvYvoF (YvoF from Haloferax volcanii) (Haloferax volcanii, UniProt D4GZM3).
T1 construct: full length, C-terminal His6 tag, pTA1228 vector, NdeI/XhoI; homologous expression in H. volcanii H1424, IMAC; printed cloning primers encode N-terminus MTDDDAAP and C-terminus DETDGA before LE of the XhoI site
Description: […]-GGG acetylation, TLC and autoradiography. The class given is biochemical. The settings on record: acetyl-CoA 0.25 mM, MgCl2 10 mM, 1300 mM NaCl, 0.2% Tween80, pH 8.0, 40 °C; labelled compound.

The structures appear in SMILES notation.

T1 sequence (D4GZM3 entry or part of it): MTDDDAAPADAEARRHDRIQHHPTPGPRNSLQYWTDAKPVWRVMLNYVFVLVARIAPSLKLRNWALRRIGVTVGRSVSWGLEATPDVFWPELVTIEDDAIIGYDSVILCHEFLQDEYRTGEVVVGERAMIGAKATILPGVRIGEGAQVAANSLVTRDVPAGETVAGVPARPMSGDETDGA

In the case of `CC(C)=CCC/C(C)=C/CC/C(C)=C/CC/C(C)=C/COC[C@H](O)CO` [GGG, geranylgeranylglycerol], the “14C-GGG acetylation, TLC and autoradiography” value is listed as “GGG was gradually diacetylated (to Ac2‐GGG) by hvYvoF with increasing incubation time”.
